From US11555031B2, “Compounds and methods for regulating insulin secretion” (The Broad Institute, Inc., priority 2017, dated 2023)

Each molecule was assayed on INS-1E cells (assay: Luciferase Insulin Secretion Assay (proinsulin-Gaussia luciferase reporter)). Conditions: INS-1E cells; 2.8 mM vs 16.7 mM glucose.
Assay type: cell-based, rat
Design: key to Activity: Active: a compound is identified as active if the compound has a Z-score greater than 3 in the presence of 16.7 mM glucose; Partial activity indicates that the compound does promote insulin secretion (at lower Z-scores); Lost Glucose Dependence: In some cases, insulin secretion was promoted at both measured insulin concentrations
Excerpt: A high-throughput luminescent insulin secretion assay was developed and performed to identify compounds that amplified insulin secretion only in the presence of a permissive glucose environment (FIG. 3). The assay used in compound screening is described in International Patent Publication No. WO2013070796A3, PCT/US2012/063982, and in Burns et al., High-Throughput Luminescent Reporter of Insulin Secretion for Discovering Regulators of Pancreatic Beta-Cell Function. Cell Metab. 2015 Jan. 6; 21(1):126-37.
The assay is a luminescent insulin secretion assay created by inserting Gaussia luciferase within the C-peptide portion of the insulin prohormone. Gaussia luciferase was chosen because of its small size and bright luciferase signal. To ensure full activity of the luciferase, a version was used that was codon-optimized for expression in mammalian cells. The enzyme was flanked with additional cleavage sites for prohormone convertase 2 (PC2), such that no extra amino acids should be present on the ends of the enzyme after processing within the vesicles (FIG. 4). Rat (INS-1E; Merglen et al., 2004) beta-cell lines stably expressing the reporter construct were generated. Assays using this cell type are referred to herein as Luciferase Insulin Secretion Assay.
A search for glucose-dependent insulin secretagogues was conducting by screening 384,216 compounds at a single concentration (10 μM) in duplicate using the Luciferase Insulin Secretion Assay, to identify those that increase insulin secretion only in the presence of high glucose (11.1 mM) (FIG. 6). These assays were performed in 1536 well format. A Z′ factor of 0.35 was obtained with respect the positive control (300 μM IBMX). The cutoff value selected was 45% activation, which was 3-4 standard deviations above background (solid uppermost line; FIG. 6).
For standard secretion assays, INS-1E cells were plated in 96-well format, preincubated for 1 hr in Krebs Ringer Buffer (KRB) with 2.8 mM glucose, and then stimulated for 1 hr in fresh KRB containing varying amounts of glucose and compounds. Insulin or C-peptide concentration was determined using an ELISA (Mercodia), following the manufacturer's protocol. Luciferase activity was determined from the same samples by adding the coelenterazine substrate to the supernatant to a final concentration of 10 μM and reading on a standard plate reader (BioTek).
INS-1E cells were expanded to 80% confluence in their growth medium, washed once in PBS, and preincubated for 1 hr at 37° C. in KRB with 2.8 mM glucose. Cells were then dissociated, spun at 300×g for 2 min, resuspended in fresh KRB without glucose, and filtered through 40 μm mesh (Becton Dickinson). Next, the cells were counted and diluted in KRB to 1×10^6 cells per ml, and glucose was added as required for each experiment. Cells were then seeded in 384-well format, 3×10^4 cells in 30 μl per well, using a Multidrop Combi device (Thermo Scientific). Compounds were pinned into each well using a Vario robot (CyBio) to a final concentration of 30 μM, and the plates were then incubated for 2 hr at 37° C. For assays involving a transfer step, the plates were then centrifuged at 300×g for 2 min, and 20 μl of supernatant was transferred to a new 384-well plate. Coelenterazine substrate was then added to a final concentration of 10 μM, and luciferase activity was determined using a standard plate reader (BioTek).
In the case of COc1ccc(CCc2nc3cc(-c4c(C)noc4C)ccc3n2C[C@H](C)N2CCOCC2)cc1Cl [CBP30, reference compound], the “glucose-dependent (glucose-stimulated) insulin secretion, luciferase reporter” value (from here on “glucose-dependent”) is reported as “neither of the known bromodomain inhibitors (PF1 or CBP30) affect secretion to the extent of Compound 8”.
Cc1cccc(C)c1NC(=O)c1ccc(OCc2c(C)noc2C)cc1 [Compound 16] was tested, and the “glucose-dependent” value was “some positive effect on secretion”.
In the case of Cc1ccccc1NC(=O)c1ccc(OCc2c(C)noc2C)cc1 [Compound 17], the “glucose-dependent” value is reported as “some positive effect on secretion”.

Same assay, conditions: glucose dependence of insulin secretion; Z-score in the presence of 16.7 mM glucose
With Cc1cccc(-c2cnc(-c3ccc(NCc4c(C)noc4C)cc3)[nH]2)c1C [Compound 27] the Activity was “Inactive”.
Cc1cccc(-c2cc(-c3ccc(NCc4c(C)noc4C)cc3)[nH]n2)c1C [Compound 28] was tested, and the Activity was “Inactive”.
With Cc1cccc(-c2ncc(-c3ccc(NCc4c(C)noc4C)cc3)[nH]2)c1C [Compound 29] the Activity was “Inactive”.
With Cc1cccc(-c2nc(C)c(-c3ccc(NCc4c(C)noc4C)cc3)[nH]2)c1C [Compound 30] the Activity was “Inactive”.
With Cc1cc(NCc2c(C)noc2C)ccc1-c1cnc(-c2cccc(C)c2C)[nH]1 [Compound 31] the Activity was “Inactive”.
With Cc1cccc(NS(=O)(=O)c2ccc(NCc3c(C)noc3C)cc2)c1C [Compound 32] the Activity was “Inactive”.
Cc1cccc(NC(c2ccc(NCc3c(C)noc3C)cc2)C(F)(F)F)c1C (centres unmarked) [Compound 33] was tested, and the Activity was “Inactive”.
In the case of Cc1cccc(-c2nc3cc(NCc4c(C)noc4C)ccc3[nH]2)c1C [Compound 34], the Activity is reported as “Inactive”.
Cc1cccc(-c2noc(-c3ccc(NCc4c(C)noc4C)cc3)n2)c1C [Compound 35] was tested, and the Activity was “Inactive”.
Cc1ccc2nc(-c3ccc(NCc4c(C)noc4C)cc3)[nH]c2c1C [Compound 36] was tested, and the Activity was “Inactive”.
For Cc1cccc(NC(=O)c2ccc(OCc3c(C)noc3C)cn2)c1C [Compound 45], the Activity was “Inactive”.
For Cc1cccc(NC(=O)c2ccc(OCc3c(C)noc3C)cc2O)c1C [Compound 46], the Activity was “Inactive”.
For Cc1cccc(NC(=O)c2ccc(OCc3cnoc3)cc2)c1C [Compound 47, N-(2,3-Dimethyl-phenyl)-4-(isoxazol-4-ylmethoxy)-benzamide], the Activity was “Inactive”.
In the case of Cc1cccc(NC(=O)c2ccc(OCc3c(C)cnn3C)cc2)c1C [Compound 48], the Activity is reported as “Inactive”.
Cc1cccc(NC(=O)c2ccc(OCc3c(C)ccnc3C)cc2)c1C [Compound 50, N-(2,3-Dimethyl-phenyl)-4-(2,4-dimethyl-pyridin-3-ylmethoxy)-benzamide] was tested, and the Activity was “Inactive”.
With CC1=CC(=O)Cc2cc(COc3ccc(C(=O)Nc4cccc(C)c4C)cc3)ccc21 [Compound 51] the Activity was “Partial activity, Lost Glucose Dependence”.
In the case of Cc1cccc(NC(=O)c2ccc(OC(C)c3c(C)noc3C)cc2)c1C (centres unmarked) [Compound 52], the Activity is reported as “Inactive”.
With Cc1cccc(NC(=O)c2ccc(OCc3cn(C)nc3C)cc2)c1C [Compound 53] the Activity was “Inactive”.
For Cc1cccc(NC(=O)c2ccc(OCc3c(C)nn(C)c3C)cc2)c1C [Compound 54], the Activity was “Inactive”.
With Cc1cccc(NC(=O)c2ccc(/C=C\c3c(C)noc3C)cc2)c1C [Compound 55 (cis)] the Activity was “Inactive”.
For Cc1cccc(NC(=O)c2ccc(/C=C/c3c(C)noc3C)cc2)c1C [Compound 55], the Activity was “Partial activity, Lost Glucose Dependence”.
For Cc1cccc(NC(=O)c2ccc(N(C)Cc3c(C)noc3C)cc2)c1C [Compound 56], the Activity was “Inactive”.
With Cc1cccc(NC(=O)c2ccc(CNc3c(C)noc3C)cc2)c1C [Compound 57, 4-[(3,5-Dimethyl-isoxazol-4-ylamino)-methyl]-N-(2,3-dimethyl-phenyl)-benzamide] the Activity was “Inactive”.
For Cc1cccc(NC(=O)c2ccc(CN(C)c3c(C)noc3C)cc2)c1C [Compound 58, 4-{[(3,5-Dimethyl-isoxazol-4-yl)-methyl-amino]-methyl}-N-(2,3-dimethyl-phenyl)-benzamide], the Activity was “Inactive”.
For Cc1cccc(NC(=O)c2ccc(OCc3ccnnc3)cc2)c1C [Compound 59, N-(2,3-Dimethyl-phenyl)-4-(pyridazin-4-ylmethoxy)-benzamide], the Activity was “Inactive”.
For Cc1cccc(NC(=O)c2ccc(OCc3ccncc3)cc2)c1C [Compound 60, N-(2,3-Dimethyl-phenyl)-4-(pyridin-4-ylmethoxy)-benzamide], the Activity was “Inactive”.
Cc1cccc(NC(=O)c2ccc(OCc3cccnc3)cc2)c1C [Compound 61, N-(2,3-Dimethyl-phenyl)-4-(pyridin-3-ylmethoxy)-benzamide] was tested, and the Activity was “Inactive”.
In the case of Cc1cccc(NC(=O)c2ccc(OCc3ccccn3)cc2)c1C [Compound 62], the Activity is reported as “Inactive”.
For Cc1cccc(NC(=O)c2ccc(OCc3cccnc3C)cc2)c1C [Compound 63, N-(2,3-Dimethyl-phenyl)-4-(2-methyl-pyridin-3-ylmethoxy)-benzamide], the Activity was “Inactive”.
Cc1ccncc1COc1ccc(C(=O)Nc2cccc(C)c2C)cc1 [Compound 64, N-(2,3-Dimethyl-phenyl)-4-(4-methyl-pyridin-3-ylmethoxy)-benzamide] was tested, and the Activity was “Inactive”.
With COc1ncccc1COc1ccc(C(=O)Nc2cccc(C)c2C)cc1 [Compound 65, N-(2,3-Dimethyl-phenyl)-4-(2-methoxy-pyridin-3-ylmethoxy)-benzamide] the Activity was “Inactive”.
Cc1cccc(NC(=O)c2ccc(OCc3cnccc3Cl)cc2)c1C [Compound 66, 4-(4-Chloro-pyridin-3-ylmethoxy)-N-(2,3-dimethyl-phenyl)-benzamide] was tested, and the Activity was “Inactive”.
With Cc1cccc(NC(=O)c2ccc(OCc3cccnc3Cl)cc2)c1C [Compound 67, 4-(2-Chloro-pyridin-3-ylmethoxy)-N-(2,3-dimethyl-phenyl)-benzamide] the Activity was “Inactive”.
Cc1noc(C)c1COc1ccc(C(=O)Nc2cccc(Cl)c2Cl)cc1 [Compound 68, N-(2,3-Dichloro-phenyl)-4-(3,5-dimethyl-isoxazol-4-ylmethoxy)-benzamide] was tested, and the Activity was “Active”.
With Cc1cccc(NC(=O)c2ccc(OCc3c(C)noc3C)cc2)c1C#N [Compound 69, N-(2-Cyano-3-methyl-phenyl)-4-(3,5-dimethyl-isoxazol-4-ylmethoxy)-benzamide] the Activity was “Active”.
For Cc1cccc(NC(=O)c2ccc(OCc3c(C)noc3C)cc2)c1CO [Compound 70], the Activity was “Active”.
With Cc1noc(C)c1COc1ccc(C(=O)Nc2cccc(Cl)c2C)cc1 [Compound 72, N-(3-Chloro-2-methyl-phenyl)-4-(3,5-dimethyl-isoxazol-4-ylmethoxy)-benzamide] the Activity was “Active”.
With Cc1noc(C)c1COc1ccc(C(=O)Nc2cccc3c2CCCC3)cc1 [Compound 73, 4-(3,5-Dimethyl-isoxazol-4-ylmethoxy)-N-(5,6,7,8-tetrahydro-naphthalen-1-yl)benzamide] the Activity was “Inactive”.
For Cc1noc(C)c1COc1ccc(C(=O)Nc2cccc3ccccc23)cc1 [Compound 74, 4-(3,5-Dimethyl-isoxazol-4-ylmethoxy)-N-naphthalen-1-yl-benzamide], the Activity was “Inactive”.
In the case of Cc1cccc(NC(=O)c2ccc(OCc3c(C)noc3C)cc2)c1 [Compound 75], the Activity is reported as “Inactive”.
For Cc1ccccc1NC(=O)c1ccc(OCc2c(C)noc2C)cc1 [Compound 76], the Activity was “Inactive”.
